# Reference: the supplement of paper PMC10307832
# Tests used:
# Assay in all cases: relative viability (nuclei count vs DMSO), 5 days (fraction); higher = more cells survive
# [1] = compound: Cc1ccc(C(=O)N(CCCN)[C@@H](c2nc3cc(Cl)ccc3c(=O)n2Cc2ccccc2)C(C)C)cc1 [Ispinesib] + Nc1nc2[nH]cc(CCc3ccc(C(=O)N[C@@H](CCC(=O)O)C(=O)O)cc3)c2c(=O)[nH]1 [Pemetrexed] (partner 0.2 µM)
# Procedure, shortened: (§1)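 Lung cancer cell lines in 1536-well plates were dosed by pin tool the day after seeding, either with one drug alone or with a fixed anchor-drug dose plus five library-drug doses (not always all listed) in √10 steps. After 5 days, cells were fixed and their nuclei stained in one step (final 0.05% Triton X-100, 1% formaldehyde, 1 ug/ml Hoechst), then counted on 4× images. Relative viability is the nuclei count in treated wells divided by that in vehicle wells. Values are medians of duplicate plates.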
# [2] = compound: C[C@]1(O)C[C@@H](c2nc(-c3ccc4ccc(-c5ccccc5)nc4c3)c3c(N)nccn32)C1 [Linsitinib] + CC(=O)c1c(C)c2cnc(Nc3ccc(N4CCNCC4)cn3)nc2n(C2CCCC2)c1=O [Palbociclib] (partner 0.5 µM)
# Procedure, shortened: as §1
# [3] = compound: C[C@]1(O)C[C@@H](c2nc(-c3ccc4ccc(-c5ccccc5)nc4c3)c3c(N)nccn32)C1 [Linsitinib] + Nc1nc2[nH]cc(CCc3ccc(C(=O)N[C@@H](CCC(=O)O)C(=O)O)cc3)c2c(=O)[nH]1 [Pemetrexed] (partner 0.2 µM)
# Procedure, shortened: as §1
# [4] = compound: C[C@]1(O)C[C@@H](c2nc(-c3ccc4ccc(-c5ccccc5)nc4c3)c3c(N)nccn32)C1 [Linsitinib] + CCNC(=O)c1noc(-c2cc(C(C)C)c(O)cc2O)c1-c1ccc(CN2CCOCC2)cc1 [Luminespib] (partner 0.01 µM)
# Procedure, shortened: as §1
Cell Line,relative viability ([1]; first compound 0.001 µM),relative viability ([1]; first compound 0.003162 µM),relative viability ([1]; first compound 0.01 µM),relative viability ([1]; first compound 0.03162 µM),relative viability ([1]; first compound 0.1 µM),relative viability ([2]; first compound 0.01 µM),relative viability ([2]; first compound 0.03162 µM),relative viability ([2]; first compound 0.1 µM),relative viability ([2]; first compound 0.3162 µM),relative viability ([2]; first compound 1 µM),relative viability ([3]; first compound 0.01 µM),relative viability ([3]; first compound 0.03162 µM),relative viability ([3]; first compound 0.1 µM),relative viability ([3]; first compound 0.3162 µM),relative viability ([3]; first compound 1 µM),relative viability ([4]; first compound 0.01 µM),relative viability ([4]; first compound 0.03162 µM),relative viability ([4]; first compound 0.1 µM),relative viability ([4]; first compound 0.3162 µM),relative viability ([4]; first compound 1 µM)
PC-14,0.132,0.139,0.0661,0.0425,0.0577,0.513,0.46,0.521,0.429,0.507,0.137,0.0865,0.16,0.121,0.148,0.217,0.112,0.18,0.196,0.103
RERF-LC-KJ,0.43,0.516,0.443,0.309,0.202,0.909,0.795,1.05,0.464,1.1,0.414,0.461,0.48,0.349,0.491,1.12,1.15,1.42,1.13,1.1
SK-LU-1,1.07,0.972,1.27,0.897,0.412,0.436,0.303,0.394,0.391,0.384,0.913,0.686,0.997,0.894,0.985,0.212,–,0.203,0.208,0.215
SK-MES-1,1.02,1.04,0.805,0.206,0.234,0.325,0.297,0.323,0.296,0.324,0.991,0.795,0.958,0.784,0.753,0.845,0.854,0.953,0.652,0.762
SW 900,0.482,0.516,0.525,0.469,0.189,0.506,0.544,0.534,0.476,0.505,0.484,0.44,0.478,0.438,0.405,0.169,0.204,0.189,0.162,0.165
SW 1573,0.799,0.791,0.78,0.279,0.152,0.428,0.358,0.333,0.259,0.33,0.912,0.676,0.921,0.828,0.732,0.22,0.359,0.238,0.129,0.238
